Results: paper PMC10216263, “Favorable Preclinical Pharmacological Profile of a Novel Antimalarial Pyrrolizidinylmethyl Derivative of 4-amino-7-chloroquinoline with Potent In Vitro and In Vivo Activities” (Biomolecules, 2023)

How the values were obtained:
[1] = test system: P. falciparum V1-S (CQ-R); test: In vitro antimalarial activity, [3H]-hypoxanthine incorporation (LSHTM); assay type: cell-based; conditions: Plasmodium falciparum; 72 h, [3H]-hypoxanthine incorporation, mean of 3 experiments; read-out: P. falciparum IC50 nM, V1-S (CQ-R)
[2] = test system: human hepatocytes; test: Metabolic profiling in hepatocytes; assay type: in vitro ADME; conditions: human hepatocytes, MG3 10 µM, 1 h incubation, semi-quantitative
Experimental: (§1) For metabolite profiling, MG3.2HCl (10 µM) was incubated with mouse, rat, dog, monkey, and human hepatocytes (300,000 cells/mL for the mouse and 1 × 10^6 cells/mL for the other species) in Leibovitz L-15 medium, at 37 °C. Incubations were performed in a 12-well plate under shaking. Aliquots of the incubation samples, together with a control in medium alone, were taken at t = 0 and 60 min; the metabolism was stopped by the addition of an equal volume of chilled ACN and the samples were centrifuged at 1100 rpm for 20 min. The supernatant was stored at −20 °C until analysis. The analyses were performed using an HPLC system (Agilent) online with a photodiode array (PDA) detector (Agilent) coupled to a Mass Spectrometer Q-TOF 2 (Waters), ESI positive, following the method reported in Table 1.
(§2) The software utilized for searching the accurate masses of possible metabolites was Metabolynx, version 4.1 (Waters Corporation, Milford, MA, USA), with a mass window of 40 mDa. Samples were then re-run in MS/MS mode by selecting the masses of possible metabolites found. The collision energy used to obtain MS/MS data was 25 eV. The proposed identity of metabolites was based on their accurate mass (using LockSpray correction), with an accuracy of +/−5 mDa. MS/MS analyses were performed to verify that peaks were drug-related and to obtain structural information from the fragment ions formed. The structures of some metabolites are proposed. The approximate relative amounts of parent and metabolites were determined from the absolute areas taken from a selected ion chromatogram at the metabolite masses with a mass window of 0.04 Da.

[3] = test system: rat hepatocytes; test: Metabolic profiling in hepatocytes; assay type: in vitro ADME; conditions: rat hepatocytes, MG3 10 µM, 1 h incubation, semi-quantitative
Experimental: as §1, §2

[4] = in vivo; parameters: species or system male Sprague Dawley rats; conditions: male, Sprague Dawley, rat
Experimental: The formulations were prepared on the days of dosing, immediately before administration. MG3 for IV administration was formulated as in situ dimesylate salt, in 5% of glucose solution (4 mg/mL nominal concentration), while for oral administration it was prepared by suspending the test item in 0.5% methocel solution (v/v) (6 mg/mL nominal concentration). […] After 5-days postoperative recovery period, MG3 was administered and serial blood samples (about 0.3 mL) were collected from femoral vein using heparinized syringe at 5, 15, and 30 min, 1, 3, 6, 24-, 48-, 72- and 96-hours post-dosing after IV administration and at 15, and 30 min, 1, 3, 6 and 24-, 48-, 72- and 96-hours post-dosing after oral administration. The samples were then transferred into pre-cooled tubes protected from light and centrifuged at 3000 rpm for 4 min at +4 °C to collect plasma, and single aliquots of plasma were stored at −80 °C until analysis. Sample analysis: 400 µL of methanol was added to 10 µL of plasma in a 96-well plate; after centrifugation for 15 min at 2000 rpm at 6 °C, an aliquot of 360 µL of supernatant was transferred into a new 96-well plate and dried at 40 °C. Sample extracts were reconstituted with a volume of 150 µL of a mixture solution of 10 mM ammonium formate pH 3.5:methanol (90:10; v/v) and centrifuged for 3 min at 2000 rpm at 6 °C and the supernatant was injected onto the LC-MS/MS system. A HP1100 HPLC with a Synergy 4 um Hydro-RP 80A 2.0 × 50 mm column, coupled with AB/MDS Sciex 4000 QTrap in positive ion mode was utilized for analysis; 10 µL samples were injected, a gradient with 10 mM ammonium formate pH 3.5 and methanol was utilized. Data obtained were analyzed using the non-compartmental approach (Watson package v. 6.4.0.04, Thermo Fisher Scientific, Waltham, MA, USA).

[5] = test system: beta-hematin (malaria pigment) formation; parameters: method as in PMID 18538567; conditions: in vitro BHIA; cited from earlier work
[6] = test system: Salmonella typhimurium TA98; test: Bacterial Reverse Mutation Assay; conditions: TA 98, with metabolic activation
Experimental: (§3) using the preincubation method (30 min, 37°C) with and without phenobarbital-5,6-benzoflavone induced
(§4) MG3 was dissolved in distilled water (H2O) at
(§5) the maximum concentration of 40 mg/mL and tested in a preliminary range-finding test in all strains of
(§6) metabolic activation to determine the toxicity of the compound.

[7] = test system: Escherichia coli WP2 uvrA; test: Bacterial Reverse Mutation Assay; conditions: with metabolic activation
Experimental: as §3, §4, §5, §6

In the case of `Clc1ccc2c(NCC34CCCN3CCC4)ccnc2c1` [MG3, 7-Chloro-N-((hexahydro-1H-pyrrolizin-7a-yl)methyl)quinolin-4-amine], the IC50 [1] is reported as 25.7 nM, the “% of Total Drug Related Material” value [2] is reported as 82% and the “% of Total Drug Related Material” value [3] is reported as 53%. It also gave an AUC(0-inf) ([4]; iv, 10 mg/kg) of 1300 ± 223 ng·h/mL, an AUC(0-t) ([4]; iv, 10 mg/kg) of 1290 ± 217 ng·h/mL and a Cmax ([4]; iv, 10 mg/kg) of 395 ± 118 ng/mL. For the same compound, the Vd ([4]; iv, 10 mg/kg) was 59.9 L/kg, the clearance ([4]; iv, 10 mg/kg) was 139 ± 20.2 mL/min/kg and the half-life ([4]; iv, 10 mg/kg) was 7.7 ± 0.6 h. For the same compound, the tlast ([4]; iv, 10 mg/kg) was 48.0 ± 0.1 h, the AUC(0-inf) ([4]; po, 30 mg/kg) was 4400 ± 633 ng·h/mL and the AUC(0-t) ([4]; po, 30 mg/kg) was 4360 ± 630 ng·h/mL. The Cmax ([4]; po, 30 mg/kg) was 213 ± 23.7 ng/mL, the half-life ([4]; po, 30 mg/kg) was 10.7 ± 1.2 h and the “still detectable in the plasma up to” value ([4]; po, 30 mg/kg) was 72 to 96 h. The tlast ([4]; po, 30 mg/kg) was 80.0 ± 13.9 h, the “inhibition of beta-hematin formation” value [5] was “able to inhibit the formation of beta-hematin” and the “fold increase value (ratio treated/solvent revertant numbers)” value ([6]; I° Exp., 1000 µg/plate) was 1.1. The “fold increase value (ratio treated/solvent revertant numbers)” value ([6]; I° Exp., 62.5 g/plate) was 1.1, the “fold increase value (ratio treated/solvent revertant numbers)” value ([6]; I° Exp., 125 g/plate) was 1.2 and the “fold increase value (ratio treated/solvent revertant numbers)” value ([6]; I° Exp., 250 g/plate) was 1.4. For the same compound, the “fold increase value (ratio treated/solvent revertant numbers)” value ([6]; I° Exp., 500 g/plate) was 1.5, the “fold increase value (ratio treated/solvent revertant numbers)” value ([6]; Range finding, 1000 µg/plate) was 1.0 and the “fold increase value (ratio treated/solvent revertant numbers)” value ([6]; Range finding, 1.95 g/plate) was 0.9. For the same compound, the “fold increase value (ratio treated/solvent revertant numbers)” value ([6]; Range finding, 3.9 g/plate) was 0.9, the “fold increase value (ratio treated/solvent revertant numbers)” value ([6]; Range finding, 7.81 g/plate) was 1.5 and the “fold increase value (ratio treated/solvent revertant numbers)” value ([6]; Range finding, 15.63 g/plate) was 1.2. The “fold increase value (ratio treated/solvent revertant numbers)” value ([6]; Range finding, 31.25 g/plate) was 1.0, the “fold increase value (ratio treated/solvent revertant numbers)” value ([6]; Range finding, 62.5 g/plate) was 1.3 and the “fold increase value (ratio treated/solvent revertant numbers)” value ([6]; Range finding, 125 g/plate) was 1.3. For the same compound, the “fold increase value (ratio treated/solvent revertant numbers)” value ([6]; Range finding, 250 g/plate) was 1.2, the “fold increase value (ratio treated/solvent revertant numbers)” value ([6]; Range finding, 500 g/plate) was 1.2 and the “fold increase value (ratio treated/solvent revertant numbers)” value ([7]; I° Exp., 62.5 µg/plate) was 1.4. The “fold increase value (ratio treated/solvent revertant numbers)” value ([7]; I° Exp., 125 µg/plate) was 1.4, the “fold increase value (ratio treated/solvent revertant numbers)” value ([7]; I° Exp., 250 µg/plate) was 1.5 and the “fold increase value (ratio treated/solvent revertant numbers)” value ([7]; I° Exp., 500 µg/plate) was 0.8. The “fold increase value (ratio treated/solvent revertant numbers)” value ([7]; I° Exp., 1000 µg/plate) was 0.7, the “fold increase value (ratio treated/solvent revertant numbers)” value ([7]; Range finding, 1.95 µg/plate) was 1.0 and the “fold increase value (ratio treated/solvent revertant numbers)” value ([7]; Range finding, 3.9 µg/plate) was 0.9. For the same compound, the “fold increase value (ratio treated/solvent revertant numbers)” value ([7]; Range finding, 7.81 µg/plate) was 0.9, the “fold increase value (ratio treated/solvent revertant numbers)” value ([7]; Range finding, 15.63 µg/plate) was 0.7 and the “fold increase value (ratio treated/solvent revertant numbers)” value ([7]; Range finding, 31.25 µg/plate) was 0.8. For the same compound, the “fold increase value (ratio treated/solvent revertant numbers)” value ([7]; Range finding, 62.5 µg/plate) was 0.7, the “fold increase value (ratio treated/solvent revertant numbers)” value ([7]; Range finding, 125 µg/plate) was 0.9 and the “fold increase value (ratio treated/solvent revertant numbers)” value ([7]; Range finding, 250 µg/plate) was 0.7. The “fold increase value (ratio treated/solvent revertant numbers)” value ([7]; Range finding, 500 µg/plate) was 0.7 and the “fold increase value (ratio treated/solvent revertant numbers)” value ([7]; Range finding, 1000 µg/plate) was 0.8.
